Structures are written as SMILES.

The test relates to Choline O-acetyltransferase (squid). The test is described as follows: Compound was tested for inhibition of choline acetyltransferase isolated from squid head ganglia; No inhibition at limit of solubility (4.4*10e-3 M).

For the molecule `O=S(=O)(O)c1ccc2ccccc2c1Nc1ccccc1`, the Ki result is given as “No inhibition at limit of solubility”.

(Values after ChEMBL document CHEMBL1121773, “Interaction of aromatic dyes with the coenzyme A binding site of choline acetyltransferase” (J Med Chem, 1981).)
